# Source: US8372971B2, “Heterocyclic compounds and methods of use” (TargeGen, Inc., priority 2004, dated 2013)
# Counter-ions that a name gives are not always drawn. Like-named read-outs stand apart in the source and are kept apart here.
# Legend:
# [1] = test system: p-MEK and p-ERK levels in HUVECs; assay: Western Blot, inhibition of MAPK pathway in cellular assay (Example 27); type: cell-based, human; conditions: for Western Blot: at 5 uM, 50 ng/ml VEGF or FGF
# Experimental: (§1) Western Blot: Early passage primary human umbilical vein endothelial cells (HUVECs) were maintained in EGM-2 containing SingleQuots (Cambrex, East Rutherford, N.J.), 10% FBS, 10 mM HEPES, and 50 μg/ml gentamicin. Prior to treatment of the cells with inhibitor, the HUVECs were starved for 18 h by replacing serum-containing complete media with scrum-free and SingleQuot-free media. The starved cells were pre-treated with inhibitors for 60 min at various concentrations (0-20 μM). Next the HUVECs were treated with 50 ng/ml VEGF or FGF (Peprotech, Rocky Hill, N.J.) for 6 min and the cells were immediately washed with ice-cold PBS. Cells were lysed with ice-cold RIPA buffer containing 100 mM Tris pH 7.5, 150 mM NaCl, 1 mM EDTA, 1% deoxycholate, 1% Triton X-100, 0.1% SDS, 2 mM PMSF, one Complete-Mini protease inhibitor tablet (Roche, Indianapolis, Ind.; 1 tablet/7 ml of lysis buffer) and the phophatase inhibitors NaF (500 mM) and orthovanadate (1 mM). The cells were scraped and lysates transferred and centrifuged at 15,000 g for 10 min. Supernatants were transferred to new tubes and protein concentration was quantitated using the BCA protein reagent (Pierce, Rockford, Ill.). Cell lysates containing 20 μg of total protein were separated by 10% SDS-PAGE, transferred to nitrocellulose, and blocked in 5% milk in TBST. Anti phospho-ERK Thr 202/Tyr 204 (Cell Signaling, Beverly, Mass.), anti-phospho-MEK Ser217/221 (Cell Signaling), and c-Raf (BD Biosciences Pharmingen, San Diego, Calif.) used as primary antibodies were detected with horseradish peroxidase-conjugated goat anti-mouse or rabbit secondary antibodies and bands were visualized using the SuperSignal West Pico chemiluminescence reagent system (Pierce) and Kodak X-ray film (Rochester, N.Y.).
# [2] = target: T1, raf1 with inactive MEK1 (Raf1-MEK1) (Homo sapiens, UniProt P04049); assay: Raf1-MEK1 assay (KinaseGlo); type: biochemical; conditions: for IC50: Raf-Mek, 3 uM ATP, read-out: RAF-MEK assay (biochemical assay)
# T1 construct: purchased Upstate, Lake Placid, N.Y
# T1 sequence (P04049 306-648 limits assumed): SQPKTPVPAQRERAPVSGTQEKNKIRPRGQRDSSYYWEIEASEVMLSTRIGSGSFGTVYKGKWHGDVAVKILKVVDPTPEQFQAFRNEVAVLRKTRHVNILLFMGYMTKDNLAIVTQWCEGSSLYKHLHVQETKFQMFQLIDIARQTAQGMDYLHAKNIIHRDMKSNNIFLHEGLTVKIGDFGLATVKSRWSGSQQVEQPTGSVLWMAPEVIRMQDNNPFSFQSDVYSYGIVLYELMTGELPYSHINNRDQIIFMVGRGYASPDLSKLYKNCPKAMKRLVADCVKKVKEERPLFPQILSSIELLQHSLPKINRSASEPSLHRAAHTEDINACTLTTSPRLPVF
# [3] = test system: p-MEK and p-ERK levels in HUVECs; assay: Western Blot, inhibition of MAPK pathway in cellular assay (Example 105); type: cell-based, human; conditions: for Western Blot: 50 ng/ml VEGF or FGF
# Experimental: as §1, with “Some compounds described by the general structure (B) were tested for inhibition of MAPK pathway in cellular assay. Western” for “Western”, “serum-free” for “scrum-free”, “main.” for “min.”
# HUVECs = assay: XTT cell viability assay (Example 106); type: cell-based, human; conditions: 72 hours, read-out: Inhibition of HUVEC cell prolifiration (IC50)
# Experimental: Some compounds described by the general structure (B) were tested for cell viability. XTT assay: HUVECs were seeded at 10,000 cells/well of a tissue culture treated 96-well plate treated with collagen type I and grown overnight in the complete EGM-2 media as described above. The following morning, the inhibitors were serial diluted with DMSO and added to the cells with a final DMSO concentration of 1%. After 72 hours cell viability was measured with an XTT assay (Sigma, St. Louis, Mo.). The cells were also photographed to compare morphological differences to the XTT trends observed. Determination of the IC50 values was performed with quantitative software (Prism software package, GraphPad Software, San Diego Calif.).
# [4] = Homo sapiens, HUVEC, VEGF or FGF, read-out: reduction in p-Erk levels, IC50
smiles,measurement,setting,value
"O=C(Nc1ccc(OC(F)(F)F)cc1)Nc1nnc2cc(Oc3ccnc(C(=O)NCCN4CCOCC4)c3)ccc2n1 [4-{3-[3-(4-Trifluoromethoxy-phenyl)-ureido]-benzo[1,2,4]triazin-7-yloxy}-pyridine-2-carboxylic acid (2-morpholin-4-yl-ethyl)-amide]",Western Blot,[1],not active at 5 uM
"CNC(=O)c1cc(Oc2ccc3nc(NC(=O)c4cc(C(F)(F)F)ccc4Cl)nnc3c2)ccn1 [4-[2-chloro-3-trifluoromethyl-benzoylamino)-benzo[1,2,4]triazin-7-yloxy]-pyridine-2-carboxylic acid methyl amide trifluoroacetate salt]",Western Blot,[1],not active at 5 uM
"CNC(=O)c1cc(Oc2ccc3nc(NS(=O)(=O)c4cc(C(F)(F)F)ccc4Cl)nnc3c2)ccn1 [4-[2-chloro-5-(trifluoromethyl-benzenesulfonylamino)-benzo[1,2,4]triazin-7-yloxy]-pyridine-2-carboxylic acid methyl amide trifluoroacetate salt]",Western Blot,[1],not active at 5 uM
"CNC(=O)c1cc(Oc2ccc3nc(NS(=O)(=O)c4ccc(Cl)s4)nnc3c2)ccn1 [4-[3-(5-chloro-thiophene-2-sulfonylamino)-benzo[1,2,4]triazin-7-yloxy]-pyridine-2-carboxylic acid methyl amide trifluoroacetate salt]",Western Blot,[1],not active at 5 uM
same,IC50,[2],> 50 µM
"CNC(=O)c1cc(Oc2ccc3nc(NC(=O)c4cccc(C(F)(F)F)c4)nnc3c2)ccn1 [4-[3-(3-trifluoromethyl-benzoylamino)-benzo[1,2,4]triazin-7-yloxy]-pyridine-2-carboxylic acid methyl amide trifluoroacetate salt]",Western Blot,[1],not active at 5 uM
same,IC50,[2],0.655 µM
same,window,[2],~70%
"CNC(=O)c1cc(Oc2ccc3nc(NC(=O)c4cc(C(F)(F)F)cc(Cl)c4F)nnc3c2)ccn1 [4-[2-fluoro-3-chloro-5-trifluoromethyl-benzoylamino)-benzo[1,2,4]triazin-7-yloxy]-pyridine-2-carboxylic acid methyl amide trifluoroacetate salt]",Western Blot,[1],not active at 5 uM
same,IC50,[2],0.723 µM
same,window,[2],~30%
"CNC(=O)c1cc(Oc2ccc3nc(NC(=O)c4ccc(Cl)c(C(F)(F)F)c4)nnc3c2)ccn1 [4-[3-(4-chloro-3-trifluoromethyl-benzoylamino)-benzo[1,2,4]triazin-7-yloxy]pyridine-2-carboxylic acid meth amide trifluoroacetate salt]",Western Blot,[1],not active at 5 uM
same,IC50,[2],10 to 50 µM
"CNC(=O)c1cc(Oc2ccc3nc(NS(=O)(=O)c4cccc(C(F)(F)F)c4)nnc3c2)ccn1 [4-[3-(3-trifluoromethyl-benzenesulfonylamino)-benzo[1,2,4]triazin-7-yloxy]-pyridine-2-carboxylic acid methyl amide trifluoroacetate salt]",Western Blot,[1],not active at 5 uM
same,"RAF-MEK assay (biochemical assay), result in words",[2],flat
"CNC(=O)c1cc(Oc2ccc3nc(NC(=O)c4ccc(Cl)cc4Cl)nnc3c2)ccn1 [4-[2,4-dichloro-benzoylamino)-benzo[1,2,4]triazin-7-yloxy]-pyridine-2-carboxylic acid methyl amide trifluoroacetate salt]",Western Blot,[1],not active at 5 uM
same,"RAF-MEK assay (biochemical assay), result in words",[2],flat
"CN(C)C(=O)c1cc(Oc2ccc3nc(N(C)C(=O)c4ccc(OC(F)(F)F)cc4)nnc3c2)ccn1 [4-{3-[Methyl-(4-trifluoromethoxy-benzoyl)-amino]-benzo[1,2,4]triazin-7-yloxy}-pyridine-2-carboxylic acid dimethyl amide]",Western Blot,[1],partially active at 5 uM
"N#CC(=C(/N)Sc1ccccc1N)/C(C#N)=C(\N)Sc1ccccc1N [Example U0126, reference compound]",IC50,[1]; [4],200 to 300 nM
same,p-MEK levels,[1]; VEGF or FGF,unaffected
same,IC50,[3]; [4],200 to 300 nM
same,p-MEK levels,[3]; VEGF or FGF,unaffected
"CNC(=O)c1cc(Oc2ccc3nc(NC(=O)c4cccc(C(F)(F)F)c4Cl)nnc3c2)ccn1 [4-[3-(2-chloro-3-trifluoromethyl-benzoylamino)-benzo[1,2,4]triazin-7-yloxy]-pyridine-2-carboxylic acid methyl amide trifluoroacetate salt]",Western Blot,[1],not active at 5 uM
same,"RAF-MEK assay (biochemical assay), result in words",[2],flat
"CNC(=O)c1cc(Oc2ccc3nc(NS(=O)(=O)c4cc(Cl)ccc4OC)nnc3c2)ccn1 [4-[3-chloro-6-methoxy-benzenesulfonylamino)-benzo[1,2,4]triazin-7-yloxy]-pyridine-2-carboxylic acid methyl amide trifluoroacetate salt]",Western Blot,[1],not active at 5 uM
same,IC50,[2],> 50 µM
"O=C(Nc1nnc(-c2ccc(Oc3cccnc3)cc2)o1)c1cc(C(F)(F)F)cc(Cl)c1F [3-Chloro-2-fluoro-N-{5-[4-pyridin-3-yloxy)phenyl]-1,3,4-oxadiazol-2-yl}-5-trifluoromethyl)-benzamide]",IC50,"HUVECs; Homo sapiens, HUVEC",> 40000 nM
same,Western Blot,[3]; at 10 uM,not active at 10 uM
"Nc1cc(Oc2ccc(Nc3nnc(-c4ccc(OC(F)(F)F)cc4)[nH]3)cc2)nc(N)n1 [6-[4-({5-[4-(trifluoromethoxy)-phenyl-4H-1,2,4-triazol-3-yl}amino)phenoxy]pyrimidine-2,4-diamine]",IC50,HUVECs,6580 nM
same,Western Blot,[3]; concentration not given,not active
"Nc1cc(Oc2ccc(-c3nnc(Nc4ccc(Cl)cc4)o3)cc2)nc(N)n1 [6-(4-{5-[(4-chlorophenyl)amino]-1,3,4-oxadiazol-2-yl}phenoxy) pyrimidine-2,4-diamine]",IC50,"HUVECs; Homo sapiens, HUVEC",2600 nM
same,Western Blot,[3]; at 5 uM,active at 5 uM
"Clc1ccc(Nc2nnc(-c3ccc(Oc4cncnc4)cc3)o2)cc1 [5-[4-(Pyrimidin-5-yloxy)phenyl]-N-[4-chloro-phenyl]-1,3,4-oxadiazol-2-amine]",IC50,"HUVECs; Homo sapiens, HUVEC",> 20000 nM
same,Western Blot,[3]; at 5 uM,active at 5 uM
"FC(F)(F)c1cc(Nc2nnc(-c3cccc(Oc4ccncc4)c3)[nH]2)ccc1Cl [(4-chloro-3-trifluoromethyl-phenyl)-{5-[3-(pyridin-4-yloxy)-phenyl]-4H-[1,2,4]triazol-3-yl}-amine trifluoroacetic acid salt]",IC50,"HUVECs; Homo sapiens, HUVEC",1790 nM
same,Western Blot,[3]; at 5 uM,active at 5 uM
"FC(F)(F)c1cc(Nc2nnc(-c3ccc(Oc4cccnc4)cc3)o2)ccc1Cl [N-[4-chloro-3-(trifluoromethyl)phenyl]-5-[4-(pyridin-3-yloxy)phenyl]-1,3,4-oxadiazol-2-amine trifluoroacetate salt]",IC50,"HUVECs; Homo sapiens, HUVEC",1720 nM
same,Western Blot,[3]; at 5 uM,active at 5 uM
